Data published in ChEMBL document CHEMBL4270560, “Novel curcumin analogue hybrids: Synthesis and anticancer activity” (Eur J Med Chem, 2018).
Calls of active or inactive are those of the source. No cut-off for these calls is given here.

Experiments:
SGC-7901 [1] = assay: Induction of mitochondrial membrane depolarization in human SGC7901 cells assessed as cells with mitochondrial membrane potential loss at 1000 nM after 48 hrs by JC-1 staining based flow cytometric analysis (reference value: 9.29%); format: functional
SGC-7901 [2] = assay: Induction of mitochondrial membrane depolarization in human SGC7901 cells assessed as cells with mitochondrial membrane potential loss at 1000 nM after 48 hrs in presence of NAC by JC-1 staining based flow cytometric analysis (reference value: 1.65%); format: functional
SGC-7901 [3] = assay: Cell cycle arrest in human SGC7901 cells assessed as accumulation at S phase at 600 nM after 48 hrs by propidium iodide staining based flow cytometric analysis (reference value: 33.30%); format: functional
SGC-7901 [4] = assay: Induction of apoptosis in human SGC7901 cells after 48 hrs by Annexin V-FITC/propidium iodide staining based flow cytometric analysis; format: functional, cell-based
SGC-7901 [5] = assay: Induction of apoptosis in human SGC7901 cells assessed as early apoptotic cells at 1000 nM after 48 hrs by Annexin V-FITC/propidium iodide staining based flow cytometric analysis (reference value: 0.851 to 2.30%); format: functional
SGC-7901 [6] = assay: Induction of apoptosis in human SGC7901 cells assessed as necrotic cells at 800 nM after 48 hrs by Annexin V-FITC/propidium iodide staining based flow cytometric analysis (reference value: 0.052%); format: functional
SGC-7901 [7] = assay: Cell cycle arrest in human SGC7901 cells assessed as accumulation at G1 phase at 1000 nM after 48 hrs by propidium iodide staining based flow cytometric analysis (reference value: 47.93%); format: functional
SGC-7901 [8] = assay: Induction of mitochondrial membrane depolarization in human SGC7901 cells assessed as cells with intact mitochondrial membrane potential at 1200 nM after 48 hrs by JC-1 staining based flow cytometric analysis (reference value: 87.3 to 98%); format: functional
SGC-7901 [9] = assay: Induction of mitochondrial membrane depolarization in human SGC7901 cells assessed as cells with mitochondrial membrane potential loss at 800 nM after 48 hrs by JC-1 staining based flow cytometric analysis (reference value: 9.29%); format: functional
SGC-7901 [10] = assay: Induction of apoptosis in human SGC7901 cells assessed as decrease in PARP level at 600 to 1200 nM after 48 hrs by Western blot analysis; format: functional, cell-based
SGC-7901 [11] = assay: Induction of apoptosis in human SGC7901 cells assessed as late apoptotic cells at 800 nM after 48 hrs by Annexin V-FITC/propidium iodide staining based flow cytometric analysis (reference value: 1.73%); format: functional
SGC-7901 [12] = assay: Cell cycle arrest in human SGC7901 cells assessed as accumulation at S phase at 1200 nM after 48 hrs by propidium iodide staining based flow cytometric analysis (reference value: 33.30%); format: functional
SGC-7901 [13] = assay: Induction of apoptosis in human SGC7901 cells assessed as viable cells at 1000 nM after 48 hrs by Annexin V-FITC/propidium iodide staining based flow cytometric analysis (reference value: 95.9 to 96%); format: functional; conditions: SGC-7901, 48 h, read-out: Activity
U-87 MG = assay: Antiproliferative activity against human U87 cells after 48 hrs by MTT assay; format: functional, cell-based, U-87MG ATCC
SGC-7901 [14] = assay: Induction of mitochondrial membrane potential loss in human SGC7901 cells after 48 hrs by JC-1 staining based flow cytometric analysis; format: functional, cell-based
SGC-7901 [15] = assay: Induction of mitochondrial membrane depolarization in human SGC7901 cells assessed as cells with mitochondrial membrane potential loss at 1200 nM after 48 hrs by JC-1 staining based flow cytometric analysis (reference value: 1.65 to 9.29%); format: functional
SGC-7901 [16] = assay: Induction of apoptosis in human SGC7901 cells assessed as late apoptotic cells at 1200 nM after 48 hrs in presence of NAC by Annexin V-FITC/propidium iodide staining based flow cytometric analysis (reference value: 2.85%); format: functional
SGC-7901 [17] = assay: Induction of apoptosis in human SGC7901 cells assessed as necrotic cells at 1000 nM after 48 hrs in presence of NAC by Annexin V-FITC/propidium iodide staining based flow cytometric analysis (reference value: 0.304%); format: functional
SGC-7901 [18] = assay: Induction of apoptosis in human SGC7901 cells assessed as necrotic cells at 1200 nM after 48 hrs by Annexin V-FITC/propidium iodide staining based flow cytometric analysis (reference value: 0.052 to 0.304%); format: functional
SGC-7901 [19] = assay: Induction of apoptosis in human SGC7901 cells assessed as viable cells at 600 nM after 48 hrs by Annexin V-FITC/propidium iodide staining based flow cytometric analysis (reference value: 95.9%); format: functional; conditions: SGC-7901, 48 h, read-out: Activity
SGC-7901 [20] = assay: Cell cycle arrest in human SGC7901 cells assessed as accumulation at G2 phase at 800 nM after 48 hrs by propidium iodide staining based flow cytometric analysis (reference value: 18.77%); format: functional
SGC-7901 [21] = assay: Induction of apoptosis in human SGC7901 cells assessed as early apoptotic cells at 1200 nM after 48 hrs by Annexin V-FITC/propidium iodide staining based flow cytometric analysis (reference value: 0.851 to 2.30%); format: functional
[22] = molecular target: T1, Thioredoxin reductase (Homo sapiens) (UniProt Q16881+Q9NNW7+Q86VQ6); assay: Inhibition of TrxR in human SGC7901 cells assessed as p38 phosphorylation at 1200 nM after 48 hrs in presence of NAC by Western blot analysis; format: cell-based
SGC-7901 [23] = assay: Induction of apoptosis in human SGC7901 cells assessed as necrotic cells at 1200 nM after 48 hrs in presence of NAC by Annexin V-FITC/propidium iodide staining based flow cytometric analysis (reference value: 0.304%); format: functional
SGC-7901 [24] = assay: Induction of apoptosis in human SGC7901 cells assessed as late apoptotic cells at 1000 nM after 48 hrs by Annexin V-FITC/propidium iodide staining based flow cytometric analysis (reference value: 1.73 to 2.85%); format: functional
SGC-7901 [25] = assay: Cell cycle arrest in human SGC7901 cells assessed as accumulation at G2 phase at 600 nM after 48 hrs by propidium iodide staining based flow cytometric analysis (reference value: 18.77%); format: functional
[26] = molecular target: T1, Thioredoxin reductase (Homo sapiens); assay: Inhibition of TrxR in human SGC7901 cells assessed as JNK phosphorylation at 1200 nM after 48 hrs in presence of NAC by Western blot analysis; format: cell-based
SGC-7901 [27] = assay: Induction of apoptosis in human SGC7901 cells assessed as viable cells at 800 nM after 48 hrs by Annexin V-FITC/propidium iodide staining based flow cytometric analysis (reference value: 95.9%); format: functional; conditions: SGC-7901, 48 h, read-out: Activity
SGC-7901 [28] = assay: Induction of apoptosis in human SGC7901 cells assessed as viable cells at 1200 nM after 48 hrs by Annexin V-FITC/propidium iodide staining based flow cytometric analysis (reference value: 95.9 to 96%); format: functional; conditions: SGC-7901, 48 h, read-out: Activity
SGC-7901 [29] = assay: Induction of apoptosis in human SGC7901 cells assessed as early apoptotic cells at 600 nM after 48 hrs by Annexin V-FITC/propidium iodide staining based flow cytometric analysis (reference value: 2.30%); format: functional
MGC-803 = assay: Antiproliferative activity against human MGC803 cells after 48 hrs by MTT assay; format: functional, cell-based; conditions: MGC-803, 48 h
SGC-7901 [30] = assay: Induction of apoptosis in human SGC7901 cells assessed as early apoptotic cells at 1200 nM after 48 hrs in presence of NAC by Annexin V-FITC/propidium iodide staining based flow cytometric analysis (reference value: 0.851%); format: functional

COc1cc(OC)c2c(=O)c(OCCCOc3ccccc3/C=C/C(=O)/C=C/c3ccccn3)c(-c3cc(OC)c(OC)c(OC)c3)oc2c1
Activity (SGC-7901 [1]): 39.9%
Activity (SGC-7901 [2]): 2.32%
Activity (SGC-7901 [3]): 35.47%
Activity (SGC-7901 [4]): Dose-dependent effect
Activity (SGC-7901 [5]): 24.7 - 32.2%
Activity (SGC-7901 [6]): 0.425%
Activity (SGC-7901 [7]): 55.28%
Activity (SGC-7901 [8]): 35.4 - 40.2%
Activity (SGC-7901 [9]): 21.2%
Activity (SGC-7901 [10]): Active
Activity (SGC-7901 [11]): 8.3%
Activity (SGC-7901 [12]): 36.26%
viability at 1 µM (SGC-7901 [13]): 50.1 to 59.6%
IC50 (U-87 MG): 3930 nM
Activity (SGC-7901 [14]): Dose-dependent effect
Activity (SGC-7901 [15]): 55.4 - 63.7%
Activity (SGC-7901 [16]): 21.2%
Activity (SGC-7901 [17]): 0.92%
Activity (SGC-7901 [18]): 0.131 - 1.62%
viability at 0.6 µM (SGC-7901 [19]): 87.7%
Activity (SGC-7901 [20]): 13.48%
Activity (SGC-7901 [21]): 29.8 - 55.2%
inhibition [22]: inactive
Activity (SGC-7901 [23]): 0.225%
Activity (SGC-7901 [24]): 7.92 - 24.2%
Activity (SGC-7901 [25]): 15.61%
inhibition [26]: inactive
viability at 0.8 µM (SGC-7901 [27]): 66.8%
viability at 1.2 µM (SGC-7901 [28]): 24.6 to 43.7%
Activity (SGC-7901 [29]): 5.79%
IC50 (MGC-803): 560 nM
Activity (SGC-7901 [30]): 4.46%
